Patent publication US20120010404A1, “OXAZINE DYES WITH IMPROVED AQUEOUS SOLUBILITY” (SIGMA-ALDRICH CO., priority 2008, published 2012)

assay: Fluorescence quenching with tryptophan (steady-state, Stern-Volmer); assay type: physicochemical; settings: phosphate buffered solutions, pH = 8.0, 25° C.; in M-1 (unit assumed)
Experimental: FIG. 4 illustrates the fluorescence quenching by tryptophan. Shown is the fluorescence of Dye 3 in the absence and presence of various concentration of tryptophan (Trp) in phosphate buffer (pH 8) as a function of wavelength.
Steady-state fluorescence spectroscopy was performed for Dye 2, Dye 3, Dye 14, and Mr121 dye in presence of tryptophan at 25° C. in phosphate buffer.
For evaluating the quenching efficiency, the steady-state fluorescence quenching results were analyzed following the Stern-Volmer equation F0/F=1+KQ[Q], where Fo and F are the fluorescence intensities in the absence and presence of tryptophan and KQ is a static Stern-Volmer constant.

Row | SMILES | Tryptophan Stern-Volmer static quenching constant, KQ
1 | CC1CC(C)(C)N(CCCS(=O)(=O)O)c2cc3c(cc21)N=c1cc2c(cc1O3)=[N+](CCCC(=O)O)C(C)(C)CC2CS(=O)(=O)[O-] (stereo not drawn) [Dye 3, sodium 3-(11-(3-carboxypropyl)-2,2,4,10,10-pentamethyl-8-(sulfonatomethyl)-2,3,4,8,9,10-hexahydro-1H-dipyrido[3,2-b:2′,3′-i]phenoxazin-11-ium-1-yl)propane-1-sulfonate] | 320 ± 26
2 | CC1(C)CC(CS(=O)(=O)[O-])c2cc3c(cc2=[N+]1CCCC(=O)O)Oc1cc2c(cc1N=3)CCCN2CCCS(=O)(=O)O (stereo not drawn) [Dye 2, sodium 3-(11-(3-carboxypropyl)-10,10-dimethyl-8-(sulfonatomethyl)-2,3,4,8,9,10-hexahydro-1H-dipyrido[3,2-b:2′,3′-i]phenoxazin-11-ium-1-yl)propane-1-sulfonate] | 263 ± 24
3 | CC1(C)CC(CS(=O)(=O)[O-])c2cc3c(cc2N1CCCS(=O)(=O)[O-])Oc1cc2c(cc1=N3)C(CS(=O)(=O)[O-])CC(C)(C)[N+]=2CCCC(=O)O.[Na+].[Na+] (stereo not drawn) [Dye 14, disodium (11-(3-carboxypropyl)-2,2,10,10-tetramethyl-1-(3-sulfonatopropyl)-2,3,4,8,9,10-hexahydro-1H-dipyrido[3,2-b:2′,3′-i]phenoxazine-11-ium-4,8-diyl)dimethanesulfonate] | 269 ± 22
